The nature of the data set: Fluorescence of control wells containing enzyme substrate in LB broth without spores. Format: physicochemical. As to conditions: substrate 0.3 mg/mL, 60° C. On the procedure:
Luria-Bertani (LB) broth was prepared by dissolving tryptone (10 g/L), yeast extract (5 g/L), and NaCl (5 g/L) in deionized water. In the examples, 6′-fluoro-4′-methylumbelliferyl α-D-glucopyranoside (0.3 mg/mL) or 5′-fluoro-4′-methylumbelliferyl α-D-glucopyranoside (0.3 mg/mL) was added to the broth. In the comparative examples, 4′-methylumbelliferyl α-D-glucopyranoside (MUG) (0.3 mg/mL) or 6′,8′-Difluoro-4′-methylumbelliferyl α-D-glucopyranoside (0.3 mg/mL) was added to the broth. The pH of the broth was adjusted to either pH 6, pH 7, pH 8, or pH 9 using 0.1 N hydrochloric acid or 1N sodium hydroxide solutions. The broth was passed through a 0.22 micron filter prior to use.
LB broth (pH 6) containing 6′-fluoro-4′-methylumbelliferyl α-D-glucopyranoside (0.3 mg/mL) (enzyme substrate of Example 1) was added to two wells (100 microliters per well) of a black 96-well microtiter plate with optically clear, flat bottom wells (NUNC #165301, Thermo Fisher Scientific, Waltham, MA). A 5 microliter aqueous suspension containing 5×10^6 Geobacillus stearothermophilus spores (ATCC 7953) was added to each well of the microtiter plate. Next, the contents of each well were mixed using a multiple aspiration/delivery sequence with the pipet. […] The top of the plate was covered with an optically clear sealing film (product #4311971, Applied Biosystems Corporation, Foster City, CA). The plate was warmed at 60° C. and shaken in a linear direction. Fluorescence readings (360 nm excitation/450 nm emission at 50% gain) were taken from the bottom of the plate. A reading was taken at an initial time point of 10 seconds and then at +1 minute intervals thereafter. A Synergy Neo2 fluorescence plate reader (BioTek Company, Winooski, VT) was used. In Table 1, the mean fluorescence values detected (RFU) at times of 10 seconds, +5 minutes, +10 minutes, and +30 minutes are reported. The mean fluorescence values detected for the control wells were 978 RFU at 10 seconds; 920 RFU at +5 minutes; 870 RFU at +10 minutes, and 746 RFU at +30 minutes.
LB broth (pH 7) containing 6′-fluoro-4′-methylumbelliferyl α-D-glucopyranoside (0.3 mg/mL) (enzyme substrate of Example 1) was added to two wells (100 microliters per well) of a black 96-well microtiter plate with optically clear, flat bottom wells (NUNC #165301, Thermo Fisher Scientific). A 5 microliter aqueous suspension containing 5×10^6 Geobacillus stearothermophilus spores (ATCC 7953) was added to each well of the microtiter plate. Next, the contents of each well were mixed using a multiple aspiration/delivery sequence with the pipet. […] The top of the plate was covered with an optically clear sealing film (product #4311971, Applied Biosystems Corporation). The plate was warmed at 60° C. and shaken in a linear direction. Fluorescence readings (360 nm excitation/450 nm emission at 50% gain) were taken from the bottom of the plate. A reading was taken at an initial time point of 10 seconds and then at +1 minute intervals thereafter. A Synergy Neo2 fluorescence plate reader (BioTek Company) was used. In Table 2, the mean fluorescence values detected (RFU) at times of 10 seconds, +5 minutes, +10 minutes, and +30 minutes are reported. The mean fluorescence values detected for the control wells were 989 RFU at 10 seconds; 936 RFU at +5 minutes; 895 RFU at +10 minutes, and 763 RFU at +30 minutes.
LB broth (pH 8) containing 6′-fluoro-4′-methylumbelliferyl α-D-glucopyranoside (0.3 mg/mL) (enzyme substrate of Example 1) was added to two wells (100 microliters per well) of a black 96-well microtiter plate with optically clear, flat bottom wells (NUNC #165301, Thermo Fisher Scientific). A 5 microliter aqueous suspension containing 5×10^6 Geobacillus stearothermophilus spores (ATCC 7953) was added to each well of the microtiter plate. Next, the contents of each well were mixed using a multiple aspiration/delivery sequence with the pipet. […]

The values below come from patent US12123048B2, “Fluorinated 4′-alkylumbelliferyl a-D-glucopyranosides, biological sterilization indicators including the same and methods of using the same” (3M INNOVATIVE PROPERTIES COMPANY, priority 2018, dated 2024).

With `Cc1cc(=O)oc2c(F)c(O[C@H]3O[C@H](CO)[C@@H](O)[C@H](O)[C@H]3O)c(F)cc12` [Comparative Example A, 6′,8′-Difluoro-4′-methylumbelliferyl α-D-glucopyranoside], the “mean fluorescence values detected for the control wells” value (shortened to “mean fluorescence values detected”) (pH 6 LB broth, 10 seconds) was 1,768 RFU; the “mean fluorescence values detected” value (pH 6 LB broth, +5 minutes) is 1,750 RFU; the “mean fluorescence values detected” value (pH 6 LB broth, +10 minutes) is 1,743 RFU; the “mean fluorescence values detected” value (pH 6 LB broth, +30 minutes) is given as 1,805 RFU; the “mean fluorescence values detected” value (pH 7 LB broth, 10 seconds) is 1,536 RFU; the “mean fluorescence values detected” value (pH 7 LB broth, +5 minutes) is 1,519 RFU. Further, the “mean fluorescence values detected” value (pH 7 LB broth, +10 minutes) is recorded as 1,508 RFU; the “mean fluorescence values detected” value (pH 7 LB broth, +30 minutes) is given as 1,439 RFU; the “mean fluorescence values detected” value (pH 8 LB broth, 10 seconds) is 2,547 RFU; the “mean fluorescence values detected” value (pH 8 LB broth, +5 minutes) is on record as 2,601 RFU; the “mean fluorescence values detected” value (pH 8 LB broth, +10 minutes) is on record as 2,666 RFU; the “mean fluorescence values detected” value (pH 8 LB broth, +30 minutes) is recorded as 3,020 RFU. The “mean fluorescence values detected” value runs as follows: (pH 9 LB broth, 10 seconds) 1,381 RFU; (pH 9 LB broth, +5 minutes) 1,397 RFU; (pH 9 LB broth, +10 minutes) 1,496 RFU; (pH 9 LB broth, +30 minutes) 2,521 RFU.

`Cc1cc(=O)oc2cc(O[C@H]3O[C@H](CO)[C@@H](O)[C@H](O)[C@H]3O)c(F)cc12` [Example 1, 6′-Fluoro-4′-methylumbelliferyl α-D-glucopyranoside]: the “mean fluorescence values detected” value turned out to be 978 RFU (pH 6 LB broth, 10 seconds); 920 RFU (pH 6 LB broth, +5 minutes); 870 RFU (pH 6 LB broth, +10 minutes); 746 RFU (pH 6 LB broth, +30 minutes); 989 RFU (pH 7 LB broth, 10 seconds); 936 RFU (pH 7 LB broth, +5 minutes). Besides, the “mean fluorescence values detected” value (pH 7 LB broth, +10 minutes) was 895 RFU; the “mean fluorescence values detected” value (pH 7 LB broth, +30 minutes) was found to be 763 RFU; the “mean fluorescence values detected” value (pH 8 LB broth, 10 seconds) turned out to be 940 RFU; the “mean fluorescence values detected” value (pH 8 LB broth, +5 minutes) turned out to be 884 RFU; the “mean fluorescence values detected” value (pH 8 LB broth, +10 minutes) stood at 845 RFU; the “mean fluorescence values detected” value (pH 8 LB broth, +30 minutes) stood at 723 RFU. The “mean fluorescence values detected” value is, setting by setting: (pH 9 LB broth, 10 seconds) 825 RFU; (pH 9 LB broth, +5 minutes) 772 RFU; (pH 9 LB broth, +10 minutes) 738 RFU; (pH 9 LB broth, +30 minutes) 633 RFU.

As to `Cc1cc(=O)oc2cc(O[C@H]3O[C@H](CO)[C@@H](O)[C@H](O)[C@H]3O)cc(F)c12` [Example 2, 5′-Fluoro-4′-methylumbelliferyl α-D-glucopyranoside], the “mean fluorescence values detected” value (pH 6 LB broth, 10 seconds) amounted to 828 RFU; the “mean fluorescence values detected” value (pH 6 LB broth, +5 minutes) was determined as 784 RFU; the “mean fluorescence values detected” value (pH 6 LB broth, +10 minutes) came out at 738 RFU; the “mean fluorescence values detected” value (pH 6 LB broth, +30 minutes) is listed as 622 RFU; the “mean fluorescence values detected” value (pH 7 LB broth, 10 seconds) amounted to 720 RFU; the “mean fluorescence values detected” value (pH 7 LB broth, +5 minutes) amounted to 679 RFU. In addition, the “mean fluorescence values detected” value was 646 RFU (pH 7 LB broth, +10 minutes); 547 RFU (pH 7 LB broth, +30 minutes); 616 RFU (pH 8 LB broth, 10 seconds); 573 RFU (pH 8 LB broth, +5 minutes); 538 RFU (pH 8 LB broth, +10 minutes); 455 RFU (pH 8 LB broth, +30 minutes). For the same molecule, the “mean fluorescence values detected” value turned out to be 501 RFU (pH 9 LB broth, 10 seconds); 449 RFU (pH 9 LB broth, +5 minutes); 421 RFU (pH 9 LB broth, +10 minutes); 365 RFU (pH 9 LB broth, +30 minutes).

As to `Cc1cc(=O)oc2cc(O[C@H]3O[C@H](CO)[C@@H](O)[C@H](O)[C@H]3O)ccc12` [MUG, 4′-methylumbelliferyl-α-D-glucopyranoside], the “mean fluorescence values detected” value was found to be 868 RFU (pH 6 LB broth, 10 seconds); 802 RFU (pH 6 LB broth, +5 minutes); 756 RFU (pH 6 LB broth, +10 minutes); 656 RFU (pH 6 LB broth, +30 minutes); 722 RFU (pH 7 LB broth, 10 seconds); 670 RFU (pH 7 LB broth, +5 minutes). For the same molecule, the “mean fluorescence values detected” value is recorded as 636 RFU (pH 7 LB broth, +10 minutes); 557 RFU (pH 7 LB broth, +30 minutes); 628 RFU (pH 8 LB broth, 10 seconds); 569 RFU (pH 8 LB broth, +5 minutes); 535 RFU (pH 8 LB broth, +10 minutes); 463 RFU (pH 8 LB broth, +30 minutes). For the same molecule, the “mean fluorescence values detected” value turned out to be 494 RFU (pH 9 LB broth, 10 seconds); 436 RFU (pH 9 LB broth, +5 minutes); 406 RFU (pH 9 LB broth, +10 minutes); 338 RFU (pH 9 LB broth, +30 minutes).
